Measurements taken from ChEMBL document CHEMBL1201862, “PubChem BioAssay data set” (2004).
Calls of active or inactive are those of the source.

What was measured:
Cysteine protease ATG4B = Cysteine protease ATG4B (Homo sapiens, UniProt Q9Y4P1); type: functional;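 also: Fluorescence-based dose-response confirmation assay measuring inhibition of ATG4B activity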
Phospholipase A2 = Phospholipase A2 (Homo sapiens, UniProt P04054); type: functional;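 also: confirmatory dose-response counterscreen on phospholipase A2, testing hits that came from an ultra-high-throughput screen for ATG4B inhibitors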
[1] = biological target: T1, Zinc finger protein mex-5 (Caenorhabditis elegans, UniProt Q9XUB2); test: MEX-5/TCR-2 RNA interaction inhibitors, dose response, biochemical, C. elegans, fluorescence polarization (AID 1960)
T1 sequence (Q9XUB2 whole entry): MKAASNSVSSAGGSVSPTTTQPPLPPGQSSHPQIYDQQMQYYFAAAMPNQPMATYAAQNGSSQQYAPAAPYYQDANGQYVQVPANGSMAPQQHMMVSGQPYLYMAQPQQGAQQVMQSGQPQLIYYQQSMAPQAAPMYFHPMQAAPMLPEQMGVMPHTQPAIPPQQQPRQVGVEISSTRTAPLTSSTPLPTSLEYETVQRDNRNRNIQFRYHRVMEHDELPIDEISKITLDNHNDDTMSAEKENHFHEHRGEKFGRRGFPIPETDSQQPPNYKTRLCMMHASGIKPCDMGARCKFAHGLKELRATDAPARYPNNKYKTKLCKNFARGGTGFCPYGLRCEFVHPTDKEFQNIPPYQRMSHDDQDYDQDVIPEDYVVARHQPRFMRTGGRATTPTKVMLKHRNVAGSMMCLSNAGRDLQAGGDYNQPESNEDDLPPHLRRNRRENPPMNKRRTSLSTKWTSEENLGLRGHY

[2] = biological target: T2, RNA-binding protein pos-1 (Caenorhabditis elegans, UniProt G5EF15); test: inhibitors of POS-1/mex-3 RNA binding, dose response, biochemical, fluorescence polarization (AID 1964);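 also: purified POS-1 fused to maltose binding protein made in E. coli; potency of compounds blocking POS-1 binding to fluorescent RNA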
T2 sequence (G5EF15 whole entry): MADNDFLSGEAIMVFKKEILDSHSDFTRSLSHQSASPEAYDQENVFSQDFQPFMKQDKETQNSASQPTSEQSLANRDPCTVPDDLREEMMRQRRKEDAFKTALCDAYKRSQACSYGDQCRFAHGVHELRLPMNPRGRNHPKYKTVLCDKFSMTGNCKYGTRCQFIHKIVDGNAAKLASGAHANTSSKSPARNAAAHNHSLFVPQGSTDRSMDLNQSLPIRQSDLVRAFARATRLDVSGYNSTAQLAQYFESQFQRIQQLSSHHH

Keap1/Nrf2 = Keap1/Nrf2 (Homo sapiens, UniProt Q14145); test: Keap1-Nrf2 protein-protein interaction inhibitors, dose response, biochemical, fluorescence polarization, cherry-picked samples (AID 588683)
[3] = biological target: T3, Carboxy-terminal domain RNA polymerase II polypeptide A small phosphatase 1 (Homo sapiens, UniProt Q9GZU7); test: inhibitors of CTDSP1, concentration-response testing, biochemical assay, absorbance-based, actives from ultra-high-throughput screening (AID 540297); type: functional
T3 sequence (Q9GZU7 whole entry): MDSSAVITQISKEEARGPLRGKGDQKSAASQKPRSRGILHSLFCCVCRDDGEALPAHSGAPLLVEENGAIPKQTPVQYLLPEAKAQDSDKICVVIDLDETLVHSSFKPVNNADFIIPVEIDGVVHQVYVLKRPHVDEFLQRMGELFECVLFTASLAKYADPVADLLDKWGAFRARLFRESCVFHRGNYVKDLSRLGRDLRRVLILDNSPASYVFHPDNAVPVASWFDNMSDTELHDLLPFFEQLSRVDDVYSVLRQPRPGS

[4] = biological target: DNA (cytosine-5)-methyltransferase 1 (Homo sapiens, UniProt P26358); test: DNMT1 methyltransferase inhibitors, confirmation, biochemical, fluorescent molecular beacon (AID 602386); type: functional
DNA topoisomerase = DNA topoisomerase (Yersinia pestis, UniProt A0A2S9PM60); test: Y. pestis Topo-I inhibitors, cleavage product readout, dose response, biochemical, cherry-pick (AID 588525)
Cytochrome P450 3A4 = Cytochrome P450 3A4 (Homo sapiens, UniProt P08684);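 also: CYP3A4 tested as one member of a cytochrome P450 panel screen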
Cytochrome P450 2C19 = Cytochrome P450 2C19 (Homo sapiens, UniProt P33261); test: Cytochrome panel assay with activity outcomes. Panel member name: p450-cyp2c19 Compounds with AC50 equal or less than 10 uM are considered active; type: functional; conditions: read-out: AC50
[5] = biological target: Low molecular weight phosphotyrosine protein phosphatase (Homo sapiens, UniProt P24666); type: functional; conditions: read-out: IC50_Mean;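 also: Dose-response confirmation assay measuring inhibition of LMPTP enzyme activity by fluorescence intensity read-out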
[6] = biological target: T4, Heat shock factor protein 1 (Mus musculus, UniProt P38532); test: inhibition of MG132-induced HSE-luciferase signal, confirmation, cell-based, NIH3T3, luminescence, dose retest (AID 2382); type: functional;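 also: NIH3T3 fibroblasts with HSF1-driven luciferase reporter stressed by proteasome inhibitor MG132; luminescence from HSF1-driven luciferase expression after 8 hours of MG132 stress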
T4 sequence (P38532 whole entry): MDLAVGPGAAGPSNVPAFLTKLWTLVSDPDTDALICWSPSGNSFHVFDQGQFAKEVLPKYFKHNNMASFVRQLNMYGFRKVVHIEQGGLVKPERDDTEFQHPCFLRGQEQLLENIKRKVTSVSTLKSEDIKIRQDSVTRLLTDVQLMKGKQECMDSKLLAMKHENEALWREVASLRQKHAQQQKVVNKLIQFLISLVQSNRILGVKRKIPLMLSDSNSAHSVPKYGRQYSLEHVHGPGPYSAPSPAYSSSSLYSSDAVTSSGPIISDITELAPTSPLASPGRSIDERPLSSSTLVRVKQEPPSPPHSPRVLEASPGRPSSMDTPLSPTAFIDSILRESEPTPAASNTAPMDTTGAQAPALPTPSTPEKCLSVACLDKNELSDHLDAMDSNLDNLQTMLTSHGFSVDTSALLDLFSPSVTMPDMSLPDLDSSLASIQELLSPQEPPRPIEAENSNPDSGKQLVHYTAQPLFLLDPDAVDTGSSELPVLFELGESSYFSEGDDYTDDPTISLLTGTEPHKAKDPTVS

[7] = biological target: T5, Microphthalmia-associated transcription factor (Homo sapiens, UniProt O75030); test: TRPM1 promoter luciferase signal decrease, dose response, MITF inhibitor project, cell-based, SK-MEL-5, cherry-picked, set 3 (AID 493073); type: functional
T5 sequence (O75030 whole entry): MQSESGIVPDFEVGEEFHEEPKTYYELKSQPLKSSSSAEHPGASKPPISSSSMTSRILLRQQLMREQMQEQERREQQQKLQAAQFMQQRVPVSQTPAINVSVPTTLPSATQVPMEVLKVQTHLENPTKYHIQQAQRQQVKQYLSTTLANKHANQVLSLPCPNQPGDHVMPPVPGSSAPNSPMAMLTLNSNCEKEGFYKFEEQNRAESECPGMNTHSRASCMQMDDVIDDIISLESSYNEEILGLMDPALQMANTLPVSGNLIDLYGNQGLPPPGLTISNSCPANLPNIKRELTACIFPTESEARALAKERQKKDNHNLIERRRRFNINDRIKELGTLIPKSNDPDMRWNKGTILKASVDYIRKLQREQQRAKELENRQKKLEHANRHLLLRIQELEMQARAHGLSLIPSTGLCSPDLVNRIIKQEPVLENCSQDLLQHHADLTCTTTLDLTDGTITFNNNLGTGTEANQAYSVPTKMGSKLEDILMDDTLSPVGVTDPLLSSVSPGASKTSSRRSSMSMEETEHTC

A-375 [8] = test: A375 melanoma cell viability reduction, dose response, counter-screen for MITF modulator project, cherry-pick samples, set 2 (AID 540335); type: functional, cell-based; conditions: Homo sapiens
[9] = Luminescence Cell-Based Dose Retest to Confirm Inhibitors of Cancer Stem Cells. [Related pubchem assays (depositor defined):AID2717, AID2721]; type: functional; conditions: Homo sapiens
A-375 [10] = test: MITF: Counter assay: A375 proliferation Measured in Cell-Based System Using Plate Reader - 2084-03_Inhibitor_Dose_DryPowder_Activity. [Related pubchem assays (depositor defined):AID488944]; type: functional; conditions: Homo sapiens
[11] = Shn3 3'UTR reporter inhibitors, dose response, cell-based, Clone20 osteoblasts, firefly luciferase, cherry-picked (AID 624132); type: functional;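 also: firefly luciferase luminescence from reporter carrying the Shn3 3'UTR in osteoblasts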
Protein Wnt-3a = Protein Wnt-3a (Mus musculus, UniProt P27467); test: Wnt3a-driven reporter signaling inhibition, dose response, selectivity assay for Gli-SUFU antagonist project, Wnt-LIGHT cells, luminescence (AID 651570); type: functional; conditions: read-out: IC50_Mean;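 also: Wnt-LIGHT reporter cells stimulated with conditioned medium from Wnt3a-producing cells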
[12] = HepG2 cell cytotoxicity, dose response, cytotoxicity control for Shn3 inhibitor project, CellTiter-Glo, cherry-picked (AID 624134); type: functional, cell-based
[13] = control 3'UTR Renilla luciferase suppression, dose response, counter-screen for Shn3 inhibitor project, cell-based, Clone20-Shn3RL, cherry-picked (AID 624133); type: functional
HEK293 [14] = test: SAR Analysis of small molecule inhibitors of B-cell specific antigen receptor-induced NF-kB activation in a HEK-293T cell line using a luminescence assay - Set 2. [Related pubchem assays (depositor defined):AID435022, AID435025, AID489021]; type: functional, cell-based; conditions: Homo sapiens
HEK293 [15] = test: cytotoxicity in HEK293T NF-kB-Luc cells, SAR follow-up, cytotoxicity control for NF-kB activator project, cell-based, resazurin fluorescence (AID 493251); type: functional; conditions: Homo sapiens
Jurkat = test: SAR Analysis of small molecule inhibitors of […] specific antigen receptor-induced NF-kB activation in a Jurkat cell line using a luminescence assay - Set 3. [Related pubchem assays (depositor defined):AID435022, AID435025, AID465]; type: functional, cell-based; conditions: Homo sapiens
[16] = biological target: T6, Dual specificity protein phosphatase 3 (Homo sapiens, UniProt P51452); test: SAR VHR1 Fluorescent Assay for In Vitro dose response studies Set 3. [Related pubchem assays (depositor defined):AID1654, AID1661, AID1878]; type: functional
[17] = biological target: Tyrosine-protein phosphatase non-receptor type 5 (Homo sapiens, UniProt P54829); test: STEP phosphatase inhibitors, confirmation, biochemical, fluorescence intensity, uHTS hits (AID 602372); type: functional; conditions: read-out: IC50_Mean
[18] = biological target: T6, Dual specificity protein phosphatase 3; test: VHR phosphatase inhibition, dose response, selectivity assay for STEP inhibitor project, biochemical (AID 602374); type: functional; conditions: read-out: IC50_Mean
[19] = biological target: Tyrosine-protein phosphatase non-receptor type 11 (Homo sapiens, UniProt Q06124); test: SHP2 phosphatase inhibition, dose response, selectivity assay for STEP inhibitor project, biochemical (AID 602367); type: functional; conditions: read-out: IC50_Mean
[20] = biological target: Glycogen synthase kinase-3 beta (Homo sapiens, UniProt P49841); type: functional;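 also: value comes from a broad kinome profiling panel, with GSK3B as the panel member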
[21] = biological target: Homeodomain-interacting protein kinase 2 (Homo sapiens, UniProt Q9H2X6); type: functional;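 also: measured within a kinome-wide kinase profiling panel, HIPK2 being one panel member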
[22] = biological target: Cell division cycle 7-related protein kinase (Homo sapiens, UniProt O00311); type: functional;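 also: value obtained from a kinome-wide kinase panel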
[23] = biological target: Interleukin-1 receptor-associated kinase 4 (Homo sapiens, UniProt Q9NWZ3); type: functional
[24] = biological target: Serine/threonine-protein kinase pim-1 (Homo sapiens, UniProt P11309); type: functional
[25] = biological target: cAMP-dependent protein kinase catalytic subunit alpha (Homo sapiens, UniProt P17612); type: functional
[26] = biological target: Dual specificity protein kinase CLK4 (Homo sapiens, UniProt Q9HAZ1); type: functional

Phospholipase A2, sequence (P04054 whole entry): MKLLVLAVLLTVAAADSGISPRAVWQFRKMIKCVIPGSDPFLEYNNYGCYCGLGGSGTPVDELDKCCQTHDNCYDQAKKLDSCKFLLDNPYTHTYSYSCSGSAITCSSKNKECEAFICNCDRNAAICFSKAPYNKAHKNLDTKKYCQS
T6 sequence (P51452 whole entry): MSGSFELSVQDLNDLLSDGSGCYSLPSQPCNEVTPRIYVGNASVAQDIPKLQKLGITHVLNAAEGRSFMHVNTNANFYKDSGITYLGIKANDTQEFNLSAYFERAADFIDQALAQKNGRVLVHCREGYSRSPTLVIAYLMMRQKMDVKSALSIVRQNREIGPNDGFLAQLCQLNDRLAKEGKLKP
Cysteine protease ATG4B, sequence (Q9Y4P1 whole entry): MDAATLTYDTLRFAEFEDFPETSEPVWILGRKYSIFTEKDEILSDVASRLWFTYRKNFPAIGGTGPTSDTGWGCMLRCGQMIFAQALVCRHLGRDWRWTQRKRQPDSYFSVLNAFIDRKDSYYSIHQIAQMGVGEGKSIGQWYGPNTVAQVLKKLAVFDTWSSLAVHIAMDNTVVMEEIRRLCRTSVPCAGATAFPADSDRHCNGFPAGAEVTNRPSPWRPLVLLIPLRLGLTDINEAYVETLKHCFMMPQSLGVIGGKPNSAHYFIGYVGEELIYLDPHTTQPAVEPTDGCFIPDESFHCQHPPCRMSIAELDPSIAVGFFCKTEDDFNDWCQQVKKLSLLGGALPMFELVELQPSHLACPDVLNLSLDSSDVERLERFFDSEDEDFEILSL
DNA topoisomerase, sequence (A0A2S9PM60 whole entry): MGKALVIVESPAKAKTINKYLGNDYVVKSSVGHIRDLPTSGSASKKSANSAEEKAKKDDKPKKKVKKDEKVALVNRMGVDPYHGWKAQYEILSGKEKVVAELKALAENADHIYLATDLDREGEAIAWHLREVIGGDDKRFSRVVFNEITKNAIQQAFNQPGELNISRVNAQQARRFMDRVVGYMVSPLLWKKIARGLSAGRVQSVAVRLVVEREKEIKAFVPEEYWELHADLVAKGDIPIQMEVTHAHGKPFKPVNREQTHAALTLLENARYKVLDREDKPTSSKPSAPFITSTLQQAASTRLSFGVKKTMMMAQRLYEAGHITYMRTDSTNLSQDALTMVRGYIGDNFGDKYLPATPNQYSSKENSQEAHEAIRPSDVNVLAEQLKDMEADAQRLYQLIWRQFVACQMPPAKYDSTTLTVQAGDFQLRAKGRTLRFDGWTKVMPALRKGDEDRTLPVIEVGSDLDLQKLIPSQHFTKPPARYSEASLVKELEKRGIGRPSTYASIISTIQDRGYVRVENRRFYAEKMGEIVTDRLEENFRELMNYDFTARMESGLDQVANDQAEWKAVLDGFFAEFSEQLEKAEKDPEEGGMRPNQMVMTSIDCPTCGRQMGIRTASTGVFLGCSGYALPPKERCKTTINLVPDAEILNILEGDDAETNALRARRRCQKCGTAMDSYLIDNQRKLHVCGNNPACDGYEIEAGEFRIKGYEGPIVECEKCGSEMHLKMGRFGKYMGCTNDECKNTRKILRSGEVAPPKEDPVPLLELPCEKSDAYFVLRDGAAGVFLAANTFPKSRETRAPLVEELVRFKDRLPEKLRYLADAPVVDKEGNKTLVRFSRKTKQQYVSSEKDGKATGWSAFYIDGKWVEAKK
Tyrosine-protein phosphatase non-receptor type 11, sequence (Q06124 whole entry): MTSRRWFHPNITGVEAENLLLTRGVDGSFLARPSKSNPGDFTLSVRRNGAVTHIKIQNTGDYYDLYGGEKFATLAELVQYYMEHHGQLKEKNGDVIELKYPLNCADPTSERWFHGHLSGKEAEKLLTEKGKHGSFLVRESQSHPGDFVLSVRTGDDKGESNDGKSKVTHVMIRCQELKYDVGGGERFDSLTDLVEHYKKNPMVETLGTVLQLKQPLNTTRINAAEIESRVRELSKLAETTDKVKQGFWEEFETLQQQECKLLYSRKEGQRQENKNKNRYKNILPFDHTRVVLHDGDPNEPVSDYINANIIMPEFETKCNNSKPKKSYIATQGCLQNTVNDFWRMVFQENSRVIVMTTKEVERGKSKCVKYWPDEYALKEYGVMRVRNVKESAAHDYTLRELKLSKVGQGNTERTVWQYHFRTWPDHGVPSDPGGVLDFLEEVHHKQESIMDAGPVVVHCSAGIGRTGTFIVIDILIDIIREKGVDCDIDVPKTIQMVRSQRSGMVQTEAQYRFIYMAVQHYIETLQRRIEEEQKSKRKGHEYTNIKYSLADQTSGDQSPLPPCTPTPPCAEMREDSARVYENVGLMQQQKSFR
Cell division cycle 7-related protein kinase, sequence (O00311 whole entry): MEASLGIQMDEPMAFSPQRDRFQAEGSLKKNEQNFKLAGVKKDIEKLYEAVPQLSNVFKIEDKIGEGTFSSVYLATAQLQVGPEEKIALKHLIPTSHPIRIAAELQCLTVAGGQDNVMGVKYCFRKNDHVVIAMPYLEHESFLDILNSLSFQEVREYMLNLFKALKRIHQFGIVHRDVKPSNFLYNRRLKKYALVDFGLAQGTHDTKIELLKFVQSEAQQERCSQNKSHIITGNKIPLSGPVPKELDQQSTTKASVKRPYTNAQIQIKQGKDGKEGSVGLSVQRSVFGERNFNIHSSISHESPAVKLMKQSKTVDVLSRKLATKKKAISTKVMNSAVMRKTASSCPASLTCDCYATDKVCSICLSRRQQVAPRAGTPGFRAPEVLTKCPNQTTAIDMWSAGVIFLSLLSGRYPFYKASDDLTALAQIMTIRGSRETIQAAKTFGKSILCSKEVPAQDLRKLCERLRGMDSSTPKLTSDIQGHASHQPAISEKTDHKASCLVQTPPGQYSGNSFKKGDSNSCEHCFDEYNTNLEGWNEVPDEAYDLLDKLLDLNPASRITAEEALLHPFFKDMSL
Serine/threonine-protein kinase pim-1, sequence (P11309 whole entry): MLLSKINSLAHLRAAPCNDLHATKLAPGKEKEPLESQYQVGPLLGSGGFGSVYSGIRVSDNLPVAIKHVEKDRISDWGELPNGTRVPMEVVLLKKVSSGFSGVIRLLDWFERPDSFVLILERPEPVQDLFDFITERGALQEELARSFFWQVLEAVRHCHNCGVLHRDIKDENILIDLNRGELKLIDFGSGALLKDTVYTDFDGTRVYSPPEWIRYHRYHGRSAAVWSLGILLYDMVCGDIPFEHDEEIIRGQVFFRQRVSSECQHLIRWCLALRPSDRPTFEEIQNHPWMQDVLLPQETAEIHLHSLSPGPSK
Cytochrome P450 2C19, sequence (P33261 whole entry): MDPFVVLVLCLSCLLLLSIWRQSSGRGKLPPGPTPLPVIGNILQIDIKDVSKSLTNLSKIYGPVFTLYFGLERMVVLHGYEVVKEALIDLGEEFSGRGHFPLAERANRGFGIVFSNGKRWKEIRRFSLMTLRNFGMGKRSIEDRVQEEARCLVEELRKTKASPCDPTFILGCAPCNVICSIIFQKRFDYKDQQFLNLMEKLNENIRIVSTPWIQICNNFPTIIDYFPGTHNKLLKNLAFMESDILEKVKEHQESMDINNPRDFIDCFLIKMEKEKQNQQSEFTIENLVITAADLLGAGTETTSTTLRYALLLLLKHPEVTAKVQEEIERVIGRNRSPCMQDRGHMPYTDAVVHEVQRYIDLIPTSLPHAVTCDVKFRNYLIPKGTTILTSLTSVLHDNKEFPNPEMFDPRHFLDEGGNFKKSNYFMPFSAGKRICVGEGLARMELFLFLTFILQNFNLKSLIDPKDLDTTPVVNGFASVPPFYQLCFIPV
Homeodomain-interacting protein kinase 2, sequence (Q9H2X6 whole entry): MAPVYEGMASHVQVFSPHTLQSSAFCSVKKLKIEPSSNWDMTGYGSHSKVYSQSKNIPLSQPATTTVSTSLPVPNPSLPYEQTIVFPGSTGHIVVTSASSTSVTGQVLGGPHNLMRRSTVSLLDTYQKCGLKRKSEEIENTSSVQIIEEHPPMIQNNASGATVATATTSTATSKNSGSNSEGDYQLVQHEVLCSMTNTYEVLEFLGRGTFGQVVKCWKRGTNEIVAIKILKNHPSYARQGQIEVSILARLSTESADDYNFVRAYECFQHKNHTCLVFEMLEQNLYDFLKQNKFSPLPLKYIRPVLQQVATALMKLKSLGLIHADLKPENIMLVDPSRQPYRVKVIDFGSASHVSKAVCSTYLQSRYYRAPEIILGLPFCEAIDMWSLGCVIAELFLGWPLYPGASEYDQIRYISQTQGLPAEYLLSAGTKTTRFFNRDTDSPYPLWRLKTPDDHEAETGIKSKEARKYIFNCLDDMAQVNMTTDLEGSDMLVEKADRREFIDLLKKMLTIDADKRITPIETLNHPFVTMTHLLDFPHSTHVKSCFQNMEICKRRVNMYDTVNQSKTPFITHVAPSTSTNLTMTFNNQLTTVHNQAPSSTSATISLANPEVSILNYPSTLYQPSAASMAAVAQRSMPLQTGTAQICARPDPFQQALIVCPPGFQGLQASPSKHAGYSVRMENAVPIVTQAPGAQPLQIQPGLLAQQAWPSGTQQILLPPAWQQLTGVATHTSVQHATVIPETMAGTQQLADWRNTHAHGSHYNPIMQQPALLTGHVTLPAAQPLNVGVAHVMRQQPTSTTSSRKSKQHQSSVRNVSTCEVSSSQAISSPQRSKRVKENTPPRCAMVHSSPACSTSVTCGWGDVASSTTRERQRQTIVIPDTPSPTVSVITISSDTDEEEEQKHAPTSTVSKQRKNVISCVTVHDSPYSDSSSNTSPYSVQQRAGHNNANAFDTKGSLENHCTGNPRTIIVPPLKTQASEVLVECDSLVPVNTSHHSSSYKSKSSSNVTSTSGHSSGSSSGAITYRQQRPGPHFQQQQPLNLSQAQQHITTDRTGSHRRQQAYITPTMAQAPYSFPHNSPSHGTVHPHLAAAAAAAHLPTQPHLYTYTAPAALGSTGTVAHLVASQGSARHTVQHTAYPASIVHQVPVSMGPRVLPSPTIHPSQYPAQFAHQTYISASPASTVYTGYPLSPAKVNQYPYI
Low molecular weight phosphotyrosine protein phosphatase, sequence (P24666 whole entry): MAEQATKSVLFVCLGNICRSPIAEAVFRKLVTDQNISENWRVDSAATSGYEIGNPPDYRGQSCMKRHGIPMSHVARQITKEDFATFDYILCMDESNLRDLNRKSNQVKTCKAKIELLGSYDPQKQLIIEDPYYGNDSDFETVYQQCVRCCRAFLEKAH

Compound: COc1ccc(OC)c(-c2cc(C(=O)N3CCCc4ccccc43)no2)c1
- IC50 (Cysteine protease ATG4B): 20.1 µM (inactive)
- IC50 (Phospholipase A2): 14.8 µM (active)

Compound: CCOc1cc(C2C(C#N)=C(N)OC(C)=C2C(C)=O)cc(Br)c1O (configuration not stated)
- EC50 [1]: 12.3 µM (active)
- EC50 [2]: 12.3 µM (inconclusive)
- AC50 (Keap1/Nrf2): > 52 µM (inactive)

Compound: Cc1ccc(C(=O)NN2CC(=O)C(c3nc(-c4cccc([N+](=O)[O-])c4)cs3)=C2N)cc1
- IC50 [3]: 4.06 µM (active)
- IC50 [4]: > 99 µM (inactive)

Compound: Oc1nnc(Cc2ccc(-c3ccc(Cl)cc3)o2)c2ccccc12
- AC50 (DNA topoisomerase): 9.08 µM (active)

Compound: COc1ccc(-c2cc(C(=O)Nc3cnn(Cc4ccccc4C)c3)no2)cc1OC
- AC50 (Cytochrome P450 3A4): inconclusive
- AC50 (Cytochrome P450 2C19): 25.1 µM (inconclusive)

Compound: O=C(COc1ccc2c(-c3ccccc3)cc(=O)oc2c1)Nc1ccc(CCO)cc1
- IC50 [5]: 40.7 µM (inactive)

Compound: C=CCNC1=NN=C(c2ccc3c(c2)OCCO3)CS1
- EC50 [6]: 5.84 µM (active)
- AC50 [7]: 3.37 µM (active)
- AC50 (A-375 [8]): 48.9 µM (active)

Compound: S=C(NCc1ccccc1)Nc1cccc(Cl)c1
- IC50 (Cysteine protease ATG4B): 13.3 µM (active)
- IC50 (Phospholipase A2): 8.8 µM (active)

Compound: O=[N+]([O-])c1ccc(S(=O)(=O)CC(CN2CCCCC2)N2CCCCC2)cc1 (configuration not stated)
- AC50 [7]: 4.88 µM (active)
- AC50 [9]: 2.17 µM (active)
- AC50 (A-375 [10]): 19.9 µM (active)

Compound: CN(Cc1ccc(OC(F)F)cc1)C(=O)c1cccc(S(=O)(=O)N2CCN(Cc3ccccc3)CC2)c1
- AC50 [11]: 2.37 µM (active)
- IC50 (Protein Wnt-3a): 6.19 µM (active)
- AC50 [12]: 57.2 µM (active)
- AC50 [13]: 2.94 µM (active)

Compound: CCOc1ccc(-c2nc(CSCC(=O)N3CCC(C)CC3)c(C)o2)cc1
- IC50 (HEK293 [14]): 9.87 µM (active)
- IC50 (HEK293 [15]): 30 µM (inactive)
- IC50 (Jurkat): 32.6 µM (inactive)

Compound: CC(C)(C)c1ccc(-c2noc(CCC(=O)N3CCCCC3)n2)cc1
- IC50 (HEK293 [14]): 17.4 µM (active)
- IC50 (HEK293 [15]): 39.7 µM (inactive)
- IC50 (Jurkat): 11.6 µM (active)

Compound: COc1ccc(C(=O)NNc2nc3c(OC)cccc3s2)cc1
- IC50 [16]: > 66 µM (inactive)

Compound: O=C(N/N=C/c1cccc(Br)c1)c1ccc(N2CCCC2=O)cc1
- IC50 [17]: 11.7 µM (active)
- IC50 [18]: 7.56 µM (active)
- IC50 [19]: 7.26 µM (active)

Compound: O=[N+]([O-])c1cccc(-c2nnc3ccc(N4CCCCC4)nn23)c1
- Ki [20]: 0.0398 µM (active)
- Ki [21]: 0.0126 µM (active)
- Ki [22]: 0.00631 µM (active)
- Ki [23]: 10 µM (active)
- Ki [24]: 0.0316 µM (active)
- Ki [25]: > 7.94 µM (inactive)
- Ki [26]: 0.01 µM (active)

Compound: CN(C)c1ccc(/C=N/N2CCN(c3ccccn3)CC2)cc1
- AC50 (A-375 [8]): > 35 µM (active)
- AC50 (A-375 [10]): > 35 µM (active)
